According to patent US11466020B2, “Compounds and compositions for inhibition and elimination of Zika infection and uses for same” (Cornell University, priority 2017, dated 2022):
Where a name gives a salt, the structure may show the parent alone.

Legend:
ZIKV MR766 virus strain = experiment: Prophylactic treatment of ZIKV infected SCID-Beige mice; format: in vivo; conditions: AQ-treated ZIKV infected mice
[1] = target: histamine-N-methyltransferase (Homo sapiens, UniProt P50135); conditions: Horton et al. 2005; cited from earlier work
ZIKV (MR766 strain) [2] = experiment: qRT-PCR of total and (-) strand vRNA in hNPCs treated 24-48 h post-infection (MR766); format: cell-based, Zika virus
Description: To further evaluate the therapeutic potential of HH, qRT-PCR analysis was performed to monitor the dynamics of ZIKV vRNA expression (MR766 strain) in hNPCs. Both total and replicating (−) strand of ZIKV vRNAs could be detected at 24 h post-infection, and the vRNA level kept increasing at 36 h and 48 h post-infection (FIG. 2J). […] In addition, to determine the effect of HH on hNPCs derived from different donors, 25 μM HH or DMSO control was added to the hNPCs derived from either of two additional donors at 24 h post-infection. […] Moreover, we evaluated the dynamics of ZIKV vRNA expression (FSS13025 strain) in hNPCs.
To monitor ZIKV dynamics in hNPCs, hNPCs were infected with ZIKV (MR766 strain, MOI=0.125, FSS13025 strain MOI=0.1) for 2 h, and changed to virus-free medium. The cells were maintained in NPC medium with daily medium change. The cells were lysed at the different time points and analyzed using qRT-PCR.
RNA Extraction and qRT-PCR. Total RNA of cultured cells and organs was extracted with RNeasy plus mini kit (Qiagen). vRNA from cell culture supernatant or mouse serum was extracted with QIAampe viral RNA mini kit (Qiagen). […] ZIKV vRNA levels were calculated using a standard curve generated using serial 10-fold dilutions of ZIKV vRNA.

[3] = tested on: human forebrain organoids; experiment: Forebrain organoid proliferation, apoptosis, size and structure after ZIKV infection; format: cell-based
Excerpt: Scale bars, 100 μm. […] Scale bars, 100 μm. […] Scale bars, 50 μm.
Medium was changed every other day.

ZIKV (MR766 strain) [4] = experiment: Therapeutic treatment of ZIKV (MR766 strain) infected SCID-beige mice; format: in vivo; conditions: HH 100 mg/kg/day subcutaneously for 5 days from day 5 post-infection
Description: (A) Scheme of prophylactic treatment of HH in vivo. HH was administrated to SCID-Beige mice 12 h before infection with MR766 virus strain. HH was injected at a dose of 100 mg/kg/day subcutaneously and euthanized at day 7. (B) qRT-PCR analysis of total ZIKV vRNA in liver, spleen, kidney and brain of ZIKV infected mice. n=12 for liver, spleen and kidney and 20 for brain. (C) qRT-PCR analysis of total ZIKV vRNA in brains of ZIKV-infected mice treated with vehicle (n=14) or HH (n=8). […] (D-F) Immunohistochemical analysis of adult cortex. […] HH prevents infection in all cortical cells. Scale bar=100 μm in (D) and 10 μm in (E, F). (G-I) Immunohistochemical analysis of adult hippocampus. […] HH inhibits infection of all cells in the hippocampus. […] The mice were then euthanized and RNA from brains was analyzed using qRT-PCR. […] The mice were euthanized after 7 days treatment and RNA from brains was analyzed using qRT-PCR. (W, X) qRT-PCR analysis of total vRNA (W) and (−) strand RNA (X) in the brains of mice treated with vehicle (n=8) or HH (n=11) at day 7 post-infection. p values were calculated by one-way repeated measures ANOVA or two-way repeated measures ANOVA with a Bonferroni test for multiple comparisons. *p<0.05, **p<0.01 and ***p<0.001.
To evaluate the therapeutic potential of HH, we first monitored the kinetics of ZIKV infection (MR766 strain) in the adult mouse brain. […]

histamine-N-methyltransferase, sequence (P50135 whole entry, species assumed): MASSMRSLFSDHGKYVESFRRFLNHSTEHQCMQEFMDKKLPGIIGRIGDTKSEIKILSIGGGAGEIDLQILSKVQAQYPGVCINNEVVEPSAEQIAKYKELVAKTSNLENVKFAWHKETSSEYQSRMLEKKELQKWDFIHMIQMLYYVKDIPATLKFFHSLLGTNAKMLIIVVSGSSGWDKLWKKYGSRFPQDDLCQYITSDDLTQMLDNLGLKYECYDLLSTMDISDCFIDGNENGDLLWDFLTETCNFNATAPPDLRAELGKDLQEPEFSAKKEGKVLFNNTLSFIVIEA

SMILES	ZIKV infection of adult cortex (immunohistochemistry) (ZIKV MR766 virus strain)	ZIKV infection of adult hippocampus (immunohistochemistry) (ZIKV MR766 virus strain)	ZIKV infection of adult striatum (immunohistochemistry) (ZIKV MR766 virus strain)	inhibition of histamine-N-methyltransferase [1]	total and replicating (-) ZIKV vRNA levels in hNPCs (ZIKV (MR766 strain) [2]; 25 μM added at 24 h, 36 h or 48 h post-infection, additional 3 days)	total and replicating (-) strand ZIKV vRNAs in hNPCs from two additional donors (ZIKV (MR766 strain) [2]; 25 μM added at 24 h post-infection)	ZIKV-associated proliferation (Ki67+) and apoptosis (CAS3+) defects in D20 organoids ([3]; 25 μM HH for 3 days)	ZIKV-induced structural defects in long-term organoid cultures ([3]; 25 μM HH, D20+18)	cross-sectional area of ZIKV infected organoids at D20+18 ([3]; 25 μM HH, mock 1.6, ZIKV 0.4) [mm^2]	neurotoxicity in forebrain organoids ([3]; HH compared with AQ)	total and replicating (-) vRNA levels in brain (ZIKV (MR766 strain) [4])
CCN(CC)Cc1cc(Nc2ccnc3cc(Cl)ccc23)ccc1O [AQ, amodiaquine dihydrochloride dihydrate]	suppresses infection in adult cortex	suppresses infection in adult hippocampus	suppresses infection in adult striatum	potent inhibitor							
CN1CCC2=C[C@H](O)[C@H]3OC(=O)c4cc5c(cc4[C@H]3[C@@H]21)OCO5 [HH, hippeastrine hydrobromide]					successfully suppressed	consistently suppressed	completely rescued	successfully rescued	1.4	did not exhibit similar neurotoxicity as AQ	significantly decreased
